These results are taken from PMC3089467 (Nucleic Acids Research, 2011).

This experiment addresses T1, HhaI DNA cytosine-5 methyltransferase (M.HhaI) (Haemophilus parahaemolyticus, UniProt P05102).
T1 sequence (P05102 1-327): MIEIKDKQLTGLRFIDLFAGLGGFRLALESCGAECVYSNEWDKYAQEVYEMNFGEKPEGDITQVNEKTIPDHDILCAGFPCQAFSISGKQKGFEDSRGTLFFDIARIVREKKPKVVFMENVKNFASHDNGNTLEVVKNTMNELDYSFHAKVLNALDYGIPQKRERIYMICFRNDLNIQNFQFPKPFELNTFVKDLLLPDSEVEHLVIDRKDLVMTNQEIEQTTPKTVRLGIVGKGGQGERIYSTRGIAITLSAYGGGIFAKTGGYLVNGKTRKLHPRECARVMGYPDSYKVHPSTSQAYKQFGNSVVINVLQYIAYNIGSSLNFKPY
Briefly: stopped-flow absorbance, ternary complex with DNA. It is filed as binding. The settings on record: 100 µM AdoHcy; cognate GCGC/GMGC duplex; pH 7.4, 25 °C.

Take `Nc1ncnc2c1ncn2[C@@H]1O[C@H](CSCC[C@H](N)C(=O)O)[C@@H](O)[C@H]1O` [AdoHcy]: the “stopped-flow absorbance, ternary complex with DNA” value is “The remaining signal is regained upon addition of AdoHcy to the preformed M.HhaI–DNA complex”.
